The results in this text go back to patent US9174966B2, “Crystalline forms of 6-(1H-imidazol-1-yl)-2-phenylquinazoline” (ROTTAPHARM S.P.A., priority 2009, dated 2015).

Values after ≈ are worked out from the molar mass of the structure shown. “Also recorded” adds a separate entry of the source. Like-named read-outs stand apart in the source and are kept apart here.

Data set [1] in a line: BCS (Biopharmaceutical Classification System) classification. The data set is classed as physicochemical. Conditions: high permeability, low solubility. An excerpt: To take these two factors into account, a classification of drug products was introduced, known as BCS (Biopharmaceutical Classification System) (G L Amidon et al., Pharm. Res. 1995, 12: 413-419). Since it is endowed with good permeability and low solubility, 6-(1H-imidazol-1-yl)-2-phenylquinazoline falls into class II (high permeability, low solubility) of the BCS system. For the drug products of this class, the solubility is fundamental in determining their absorption. The preparation of pharmaceutically acceptable salts generally represents a means for increasing the solubility of sparingly soluble products, and, in the case of products endowed with good permeability, is a suitable means for increasing their bioavailability.

The nature of data set [2]: Pharmacokinetics in rats, oral versus intravenous administration. The data set is classed as in vivo. Conditions: for clearance / half-life / Tmax / bioavailability: rat, blood; for half-life: read-out: T½; for Tmax: read-out: Tmax (converted); for bioavailability: read-out: F (bioavailability). The method, then:
The samples are analysed by HPLC-MS to determine the content of 6-(1H-imidazol-1-yl)-2-phenylquinazoline, using diphenylhydramine hydrochloride as internal standard. The pharmacokinetic parameters measured are summarized hereinbelow: it is noted that, despite the fact that the polymorph under consideration is of low solubility, the bioavailability (F %) is entirely acceptable.
The pharmacokinetic parameters measured are summarized hereinbelow: it is noted that the salt under consideration has optimum bioavailability (F %). […]

The nature of data set [3]: Stability to mechanical stress (milling, XRPD). Conditions: Retsch MM 200 mill, 50 Hz, 5 min. Type of data set: physicochemical. The method, then: 6-(1H-Imidazol-1-yl)-2-phenylquinazoline, polymorph A, was subjected to milling by means of a Retsch MM 200 mill, at 50 Hz for 5 min., and the product thus obtained was analysed by XRPD.
6-(1H-Imidazol-1-yl)-2-phenylquinazoline succinate form A, was subjected to milling by means of a Retsch MM 200 mill, at 50 Hz for 5 min., and the product thus obtained was subjected to XRPD analysis.
6-(1H-Imidazol-1-yl)-2-phenylquinazoline L-tartrate dihydrate, form A, was subjected to milling by means of a Retsch MM 200 mill, at 50 Hz for 5 min., and the product thus obtained was subjected to XRPD analysis.
6-(1H-Imidazol-1-yl)-2-phenylquinazoline maleate, form A, was subjected to milling by means of a Retsch MM 200 mill, at 50 Hz for 5 min., and the product thus obtained was subjected to XRPD analysis.

Another data set in a line: physchem. Conditions: 37 °C, pH 2, aqueous buffer, thermodynamic from solid.
A short description of data set [4]: Thermal stability of the crystalline form (XRPD). Conditions: XRPD.
The nature of data set [5]: Solubility in aqueous solution of NaCl 0.9% (UV absorbance at 260 nm). Type of data set: physicochemical. Conditions: aqueous solution of NaCl 0.9%, 37 °C, saline or isotonic, thermodynamic from solid, aqueous NaCl 0.9%, stirred 500 rpm, 24 hours at 37° C. As to the method: The solubility is 0.6 mg/mL. […]
The sample of 6-(1H-imidazol-1-yl)-2-phenylquinazoline phosphate, form A, is stirred in an aqueous solution of NaCl 0.9%, at 500 rpm, so as to obtain a suspension (50 mg in 2 mL), for 24 hours at 37° C.
(§1) The sample of 6-(1H-imidazol-1-yl)-2-phenylquinazoline phosphate, form A, is stirred in an aqueous solution of NaCl 0.9%, at 500 rpm, so as to obtain a suspension (70 mg in 2 mL), for 24 hours at 37° C. […] The dissolution rate is measured by adding 2 mg of product to 40 mL of water at 37° C., stirring at 500 rpm, and measuring the absorbance at 260 nm every 0.05 min; the dissolution rate is found to be 1.9×10^−4 gr/min.

A short description of data set [6]: Dissolution rate in water at 37° C. Conditions: 2 mg of product in 40 mL of water at 37° C., 500 rpm, absorbance at 260 nm. Type of data set: physicochemical. As to the method: as §1
Data set [7] can be described thus: Stability to moisture, DVS analysis (Differential Vapour Sorption). Conditions: 25° C., hydration/dehydration cycle. The data set is classed as physicochemical. The method, then: The sample placed on a microbalance is subjected, in a chamber of controlled humidity, at 25° C., to a cycle of hydration (increasing humidity, red line) and of dehydration (decreasing humidity, blue line).
The sample of 6-(1H-imidazol-1-yl)-2-phenylquinazoline succinate form A was subjected to DVS analysis (as described in Example 32).
The sample of 6-(1H-imidazol-1-yl)-2-phenylquinazoline L-tartrate dihydrate, form A, was subjected to DVS analysis.
The sample of 6-(1H-imidazol-1-yl)-2-phenylquinazoline maleate, form A, was subjected to DVS analysis.

Data set [8] is described as follows: Hygroscopicity noted for the isolated crystalline product. Conditions: as noted in the preparation example. Type of data set: physicochemical.
Where [9] appears, read: OS 10 mg/Kg compared with IV 5 mg/kg.
[10] abbreviates: po, 10 mg/kg, OS (oral), 10 mg/Kg.
[11] abbreviates: 90° C., 12 hours (or at least 12 hours).

Experimental for physchem: A sample of 6-(1H-imidazol-1-yl)-2-phenylquinazoline, polymorph A (150 mg), is stirred in a phosphate buffer solution at pH 7.4 (8 mL), at 500 rpm, so as to obtain a suspension, for 24 hours at 37° C. The suspension is then filtered and the concentration of the dissolved product is measured by reading the UV absorbance at 260 nm. […] A sample of 6-(1H-imidazol-1-yl)-2-phenylquinazoline, polymorph A (250 mg), is stirred in a phosphate buffer solution at pH 2 (2 mL), at 500 rpm, so as to obtain a suspension, for 24 hours at 37° C. The suspension is then filtered and the concentration of the dissolved product is measured by reading the UV absorbance at 260 nm.
A sample of 6-(1H-imidazol-1-yl)-2-phenylquinazoline, form B, (50 mg), is stirred in a phosphate buffer solution at pH 7.4 (2 mL), at 500 rpm, so as to obtain a suspension, for 24 hours at 37° C. The suspension is then filtered and the concentration of the dissolved product is measured by reading the UV absorbance at 260 nm.
A sample of 6-(1H-imidazol-1-yl)-2-phenylquinazoline, form C (30 mg), is stirred in a phosphate buffer solution at pH 7.4 (2 mL), at 500 rpm, so as to obtain a suspension, for 24 hours at 37° C. The suspension is then filtered and the concentration of the dissolved product is measured by reading the UV absorbance at 260 nm. […]

As for `c1ccc(-c2ncc3cc(-n4ccnc4)ccc3n2)cc1` [6-(1H-imidazol-1-yl)-2-phenylquinazoline], the BCS class entry in data set [1] is on record as “class II”.
For orientation: Tmax means the time at which the peak concentration occurs. Broadly, the solubility is how much of the substance goes into solution per volume. High values mean much dissolved substance, low ones little dissolved substance. Regarding `c1ccc(-c2ncc3cc(-n4ccnc4)ccc3n2)cc1` [polymorph A, 6-(1H-imidazol-1-yl)-2-phenylquinazoline], the V came to 1.28 L/kg in data set [2] (IV, 5 mg/kg) and 1.60 L/kg in data set [2] (OS (oral), 10 mg/Kg). In data set [2] (setting [9]), the “F (bioavailability)” value is reported as 50.3%. For the same molecule, the CL in data set [2] (OS (oral), 10 mg/Kg) came out at 22 mL/min/kg. For the same molecule, the clearance in data set [2] (iv, 5 mg/kg) is 21 mL/min/kg. In addition, the half-life in data set [2] (iv, 5 mg/kg, IV, 5 mg/kg) amounted to 42.1 min; in [2] (setting [10]), 45.4 min. For the same molecule, in data set [2] (setting [10]), the Tmax was 100 min. For the same molecule, in data set [3], the stability to milling result is “without any contamination with other crystalline forms, and no appreciable formation of amorphous material”. In “physchem”, this molecule had a solubility at 24 h of 1800 µg/mL (≈ 6.61 mM). For the same molecule, the “thermal stability of crystalline form” value in data set [4] (40° C., RH 85%, 5 days (at least 5 days for polymorph A)) is listed as “stable”; in data set [4] (setting [11]), “stable”.
As usually defined, the bioavailability is the share of a dose that reaches the circulation, judged against a reference dose that is usually intravenous. In data set [5], `O=C(O)CCC(=O)O.c1ccc(-c2ncc3cc(-n4ccnc4)ccc3n2)cc1` [succinate form A, 6-(1H-imidazol-1-yl)-2-phenylquinazoline succinate] had a solubility at 24 h of 600 µg/mL. In addition, in data set [6], the dissolution rate is 3.53×10^−5 gr/min. Besides, the V in data set [2] (IV, 5 mg/kg) is 1.1 L/kg; in [2] (OS (oral), 10 mg/Kg), 3.74 L/kg. In [2] (OS (oral), 10 mg/Kg), this molecule registered a CL of 19 mL/min/kg. The bioavailability in [2] (setting [9]) was 65%. In data set [2] (iv, 5 mg/kg), this molecule displayed a clearance of 18 mL/min/kg. Further, the half-life in data set [2] (iv, 5 mg/kg, IV, 5 mg/kg) was 48.9 min; in data set [2] (setting [10]) it was 48.6 min. The Tmax in data set [2] (setting [10]) is 60 min. The stability to milling entry in [3] is “has not undergone any changes of crystalline form and no presence of amorphous product is revealed”. Also, the “hygroscopicity (DVS)” value in [7] (succinate) is “not entirely hygroscopic; also recorded: only at about 90% RH is there a significant minimum absorption of water”. The “hygroscopicity of the isolated product” value in [8] (succinate) is given as “non-hygroscopic”. Besides, the “thermal stability of crystalline form” value was “stable” in data set [4] (40° C., RH 85%, 7 days) and “stable” in data set [4] (setting [11]).
The molecule `O=C(O)C(O)C(O)C(=O)O.c1ccc(-c2ncc3cc(-n4ccnc4)ccc3n2)cc1` [tartrate form A, 6-(1H-imidazol-1-yl)-2-phenylquinazoline (L) tartrate dihydrate] showed a solubility at 24 h in [5] of 2500 µg/mL. The dissolution rate in data set [6] is 1.04×10^−3 gr/min. In addition, the V in [2] (IV, 5 mg/kg) is 1.4 L/kg; in data set [2] (OS (oral), 10 mg/Kg) it was 5.47 L/kg. In [2] (OS (oral), 10 mg/Kg), this molecule returned a CL of 17 mL/min/kg. For the same molecule, the bioavailability in data set [2] (setting [9]) was 81%. For the same molecule, in data set [2] (iv, 5 mg/kg), the clearance turned out to be 23 mL/min/kg. Also, the half-life came out at 47.7 min in [2] (iv, 5 mg/kg, IV, 5 mg/kg) and 47.2 min in [2] (setting [10]). Also, the Tmax in data set [2] (setting [10]) is 100 min. Further, the stability to milling entry in [3] is “has not undergone any changes of crystalline form, and a slight increase in the presence of amorphous product is revealed”. Also, the “hygroscopicity (DVS)” value in data set [7] (tartrate dihydrate) is “not hygroscopic in the range 25-70% RH; also recorded: point of inflection at 75% RH; also recorded: highly hygroscopic only at values of greater than 80% RH”. Further, the “hygroscopicity of the isolated product” value in data set [8] is recorded as “non-hygroscopic”. For the same molecule, the “thermal stability of crystalline form” value in [4] (40° C., 70% RH, 7 days) was “stable”; in [4] (90° C., 12 hours (or at least 12 hours), tartrate dihydrate), “gives rise to the amorphous form”.
